Tests used:
[1] = Pharmacokinetics in normal rats after oral administration of Zushima-Gancao extract (UHPLC-MS/MS of plasma); format: in vivo; settings: male, Sprague-Dawley, rat, oral Zushima-Gancao extract 10 mL/kg single dose, n = 6, mean ± SD
Method: (§1) The plasma concentration–time curves (C-T curves) of nine analytes are presented in Figure 2, and the corresponding pharmacokinetic parameters, including Cmax, Tmax, AUC (0–t), AUC (0–∞) (AUC: area under concentration-time curve), and t1/2, were obtained using DAS 3.0 pharmacokinetic software (Chinese Pharmacological Association, China). Statistical differences between groups were analyzed using Student’s t-tests, and p-values less than 0.05 were considered statistically significant.
(§2) The chromatography experiment was carried out using a UHPLC system (Thermo Fisher, San Jose, CA, USA), equipped with a Hypersil GOLD C18 column (100 mm × 2.1 mm, 3 μm, Thermo Fisher, San Jose, CA, USA) maintained at 35 °C. The mobile phase consisted of 0.05% formic acid in water (Solvent A) and acetonitrile (Solvent B), and the flow rate was 0.3 mL/min. In order to completely separate all the analytes, the 10 min gradient elution program was used as follows: 0–1 min, 10% B; 1–5 min, 10–90% B; 5–6 min, 90–100% B; 6–8 min, 100% B; 8–9 min, 100–10% B; 9–10 min, 10% B, and the sample injection volume was 3 μL.
(§3) Mass spectrometry detection was operated on TSQ Vantage triple-stage quadrupole mass spectrometer (Thermo Fisher, San Jose, CA, USA) equipped with an electrospray ionization (ESI) source. Quantification of the analytes was performed using selective reaction monitor (SRM) in the negative ionization mode. Spray voltage, sheath gas pressure, auxiliary gas pressure, vaporizer temperature, and capillary temperature were set as 3.0 kV, 45 arb, 25 arb, 450 °C, and 350 °C, respectively.
(§4) Male Sprague–Dawley (SD) rats weighing 180–220 g (SCXK-2012-0002) were supplied by Silaike Lab Animals Ltd. (Shanghai, China). They were all kept in a stable condition (temperature, 22 ± 2 °C; relative humidity, 45–60%) with 12 h light/dark cycles for five days before animal experiments.
(§5) Rats were randomly divided into normal and AA groups with six rats in each group. The arthritic model rats were prepared as our previous research [19]. AA rats were intracutaneously injected with 0.1 mL of FAC in the left hind footpad and normal rats were injected with sterile saline. The FAC solution was prepared as follows: bacillus calmette-guerin (BCG) was bathed in water at 80 °C for 30 min, and then dissolved in a liquid paraffin–lanolin mixture (3:2, v/v). Immediately prior to use, the FAC solution were sterilized for 30 min at 120 °C.
(§6) After model construction, the rats were fed for 20 days. All rats were fasted for 12 h before drug administration, with free access to water. Each rat was administered with Zushima-Gancao extract at a single dose of 10 mL/kg. Blood samples (approximately 0.3 mL) were collected into heparinized micro-centrifuge tubes from the postorbital venous plexus veins of rats at specific time points of 0, 0.08, 0.17, 0.33, 0.5, 1, 2, 3, 5, 8, 12, 24, and 36 h. All blood samples were centrifuged immediately at 5000 rpm for 6 min, and the plasma were obtained and stored at −80 °C until analysis.
(§7) A liquid–liquid extraction (LLE) method was applied to extract the compounds from thawed rat plasma samples, aliquots of 100 μL plasma sample were transferred into a 1.5 mL Eppendorf tube, and 10 μL of methanol, 10 μL of hydrochloric acid (2 mol/L), and 10 μL of IS (130 ng/mL) were added separately. The mixture was vortexed for 30 s, and 500 μL of ethyl acetate was added and mixed by vortexing for 10 min. The supernatant (about 450 μL) was transferred into another tube after centrifugation at 16,000 rpm for 10 min and then evaporated to dryness at 45 °C, 15 kPa in a Thermo SPD1010-230 SpeedVac Concentrator (Thermo Fisher, San Jose, CA, USA). The residue was dissolved in 100 μL of initial mobile phase by vortexing for 5 min, and a further centrifugation at 17,000 rpm for 10 min was applied after the residue was re-dissolved. The supernatant was injected into the UHPLC-MS/MS system for analysis.

[2] = Stability test of analytes in rat plasma (QC samples); format: physicochemical; settings: for 24 h Stability RE: autosampler at 4 °C for 24 h; for Short-Term Stability RE: room temperature for 4 h; for Freeze-Thaw Stability RE: three freeze-thaw cycles; for Long-Term Stability RE: −80 °C for a week
Method: Stability. To evaluate the stability of each component during analysis, QC samples at low, middle, and high concentrations (three samples for each concentration) were tested under different conditions, including placing QC samples in the autosampler at 4 °C for 24 h, at room temperature for 4 h, at −80 °C for a week, and three freeze-thaw cycles.

[3] = Pharmacokinetics in adjuvant-induced arthritis (AA) rats after oral administration of Zushima-Gancao extract (UHPLC-MS/MS of plasma); settings: for change of Cmax in AA rats versus normal rats: p < 0.05
Method: as §1, §2, §3, §4, §5, §6, §7

[4] = AA rats versus normal rats, oral Zushima-Gancao extract
[5] = male, Sprague-Dawley, rat, plasma, po, 10 mL/kg
[6] = male, Sprague-Dawley, rat, in vivo, po, 10 mL/kg

| Compound | AUC(0-inf) [1] | AUC(0-t) [1] | Cmax [1] | Tmax [1] | half-life [1] | 24 h Stability RE ([2]; high concentration) | Short-Term Stability RE ([2]; high concentration) | Freeze-Thaw Stability RE ([2]; high concentration) | Long-Term Stability RE ([2]; high concentration) | 24 h Stability RE ([2]; low concentration) | Short-Term Stability RE ([2]; low concentration) | Freeze-Thaw Stability RE ([2]; low concentration) | Long-Term Stability RE ([2]; low concentration) | 24 h Stability RE ([2]; middle concentration) | Short-Term Stability RE ([2]; middle concentration) | Freeze-Thaw Stability RE ([2]; middle concentration) | Long-Term Stability RE ([2]; middle concentration) | AUC(0-inf) [3, 5] | AUC(0-t) [3, 5] | Cmax [3, 5] | also measured |
| --- | --- | --- | --- | --- | --- | --- | --- | --- | --- | --- | --- | --- | --- | --- | --- | --- | --- | --- | --- | --- | --- |
| O=c1ccc2ccc(O)c(O)c2o1 [DPH, daphnetin] | 256 ± 54.8 ng·h/mL | 246 ± 53.9 ng·h/mL | 214 ± 32.5 ng/mL | 0.24 ± 0.11 h | 3.4 ± 0.96 h | −11.8% | −12.42% | −14.04% | −12.23% | −13.85% | −7.83% | −6.29% | −12.07% | −13.73% | −12.68% | −8.25% | −15% | 167 ± 49 ng·h/mL | 165 ± 49.4 ng·h/mL | 201 ± 108 ng/mL | decrease of AUC (0–∞) compared with the normal group [3, 4]: 34.56%; change of t1/2 in AA rats versus normal rats ([3]; AA versus normal rats): remarkable decrease; Tmax [3, 5]: 0.2 ± 0.07 h; half-life [3, 5]: 2.06 ± 0.26 h |
| COc1cc2cc(Oc3ccc4ccc(=O)oc4c3)c(=O)oc2cc1O [DR, daphnoretin] | 163 ± 78.7 ng·h/mL | 131 ± 58.1 ng·h/mL | 14.4 ± 3.31 ng/mL | 0.39 ± 0.31 h | 14.5 ± 2.91 h | −6.11% | −5.38% | −9.71% | −13.85% | −11.79% | −13.63% | 0.05% | −12.79% | −11.33% | −13.99% | −14.22% | −14.41% | 154 ± 79.8 ng·h/mL | 86.2 ± 33.8 ng·h/mL | 7.06 ± 3.82 ng/mL | change of Cmax in AA rats versus normal rats ([3]; AA versus normal rats): decreased remarkably; Tmax [3, 5]: 0.42 ± 0.31 h; half-life [3, 5]: 28.3 ± 9.39 h |
| CC1(C)[C@@H](O)CC[C@]2(C)[C@H]3C(=O)C=C4[C@@H]5C[C@@](C)(C(=O)O)CC[C@]5(C)CC[C@@]4(C)[C@]3(C)CC[C@@H]12 [GA, glycyrrhetinic acid] | 1960 ± 1260 ng·h/mL | 1940 ± 1240 ng·h/mL | 167 ± 93 ng/mL | 8.67 ± 1.63 h | 3.88 ± 1.29 h | 14.35% | 13.05% | – | 9.57% | 13.49% | 2.08% | – | 0.04% | 14.1% | −3.38% | – | 5.44% | 4330 ± 1860 ng·h/mL | 4260 ± 1860 ng·h/mL | 418 ± 296 ng/mL | increase of AUC (0–∞) in model rats compared to normal rats [3, 4]: 2.2 fold; increase of AUC(0–t) in model rats compared to normal rats [3, 4]: 2.2 fold; Tmax [3, 5]: 9.33 ± 2.07 h; half-life [3, 5]: 4.94 ± 2.43 h |
| CC1(C)[C@@H](O[C@H]2O[C@H](C(=O)O)[C@@H](O)[C@H](O)[C@H]2O[C@@H]2O[C@H](C(=O)O)[C@@H](O)[C@H](O)[C@H]2O)CC[C@]2(C)[C@H]3C(=O)C=C4[C@@H]5C[C@@](C)(C(=O)O)CC[C@]5(C)CC[C@@]4(C)[C@]3(C)CC[C@@H]12 [GL, glycyrrhizin] | 267 ± 49.7 ng·h/mL | 248 ± 47.8 ng·h/mL | 29 ± 10.5 ng/mL | 0.58 ± 0.35 h | 8.72 ± 4.81 h | 13.22% | 13.85% | 14.36% | 9.2% | 11.79% | 10.26% | 10.89% | 11.48% | 11.8% | 10.68% | 14.3% | 9.96% | 187 ± 64.6 ng·h/mL | 184 ± 61.7 ng·h/mL | 24.9 ± 7.81 ng/mL | decrease of AUC (0–∞) compared with the normal group [3, 4]: 29.89%; change of Tmax in AA rats versus normal rats ([3]; AA versus normal rats): obvious increase; Tmax [3, 5]: 4.83 ± 2.64 h; half-life [3, 5]: 4.88 ± 3.04 h |
| O=c1ccc2ccc(O)cc2o1 [HDC, 7-hydroxycoumarin] | 148 ± 24.9 ng·h/mL | 142 ± 24.4 ng·h/mL | 193 ± 29.3 ng/mL | 0.22 ± 0.08 h | 2.86 ± 1.94 h | 1.39% | 3.09% | 2.64% | −0.05% | −1.43% | −13.86% | −13.48% | −10.07% | −0.85% | −5.72% | −1.27% | −1.8% | 131 ± 29.1 ng·h/mL | 127 ± 26.8 ng·h/mL | 179 ± 98 ng/mL | Tmax [3, 5]: 0.22 ± 0.08 h; half-life [3, 5]: 2.52 ± 1.82 h |
| O=C(/C=C/c1ccc(O)cc1)c1ccc(O)cc1O [ILG, isoliquiritigenin] | 12.4 ± 6.97 ng·h/mL | 8.89 ± 3.12 ng·h/mL | 2.77 ± 0.83 ng/mL | 0.14 ± 0.05 h | 1.08 ± 0.67 h | 10.13% | 12.09% | 7.59% | 13.23% | 8.75% | −3.23% | 2.53% | −11.29% | 10.08% | 11.76% | 12.3% | 12.68% | 8.48 ± 3.04 ng·h/mL | 8.25 ± 2.9 ng·h/mL | 1.92 ± 0.55 ng/mL | change of Tmax in AA rats versus normal rats ([3]; AA versus normal rats): obvious increase; Tmax [3, 5]: 3.7 ± 2.1 h; half-life [3, 5]: 1.39 ± 0.65 h |
| O=C(/C=C/c1ccc(O[C@@H]2O[C@H](CO)[C@@H](O)[C@H](O)[C@H]2O)cc1)c1ccc(O)cc1O [ILQ, isoliquiritin] | 6.74 ± 0.6 ng·h/mL | 6.72 ± 0.6 ng·h/mL | 8.92 ± 1.68 ng/mL | 0.17 ± 0.09 h | 0.52 ± 0.2 h | 6.64% | 3.29% | 4.51% | 2.66% | 4.99% | 9.08% | −2.51% | 7.49% | 5.33% | 12.35% | −6.3% | 5.37% | – | – | – | decrease of AUC (0–∞) compared with the normal group [3, 4]: 39.02%; Tmax ([3]; AA rats, oral Zushima-Gancao extract 10 mL/kg single dose, plasma, n = 6, mean ± SD): 0.36 ± 0.13 h; change of Tmax in AA rats versus normal rats ([3]; AA versus normal rats): obvious increase; change of Cmax in AA rats versus normal rats ([3]; AA versus normal rats): decreased remarkably; AUC(0-inf) [3, 6]: 4.11 ± 1.12 ng·h/mL; AUC(0-t) [3, 6]: 4.04 ± 1.2 ng·h/mL; Cmax [3, 6]: 4.63 ± 3.64 ng/mL; half-life [3, 6]: 0.94 ± 0.83 h |
| O=C1C[C@@H](c2ccc(O)cc2)Oc2cc(O)ccc21 [LG, liquiritigenin] | 170 ± 62.5 ng·h/mL | 169 ± 62.4 ng·h/mL | 23.9 ± 3.72 ng/mL | 3.86 ± 1.98 h | 1.66 ± 0.44 h | 8.56% | 1.5% | 6.75% | 3.89% | 6.72% | 9.76% | 7.22% | 2.87% | 8.15% | 11.16% | 7.96% | 0.58% | 194 ± 84.4 ng·h/mL | 193 ± 83.2 ng·h/mL | 29.7 ± 10.7 ng/mL | Tmax [3, 5]: 4.7 ± 2.52 h; half-life [3, 5]: 2.3 ± 0.95 h |
| O=C1C[C@@H](c2ccc(O[C@@H]3O[C@H](CO)[C@@H](O)[C@H](O)[C@H]3O)cc2)Oc2cc(O)ccc21 [LQ, liquiritin] | 45.5 ± 3.9 ng·h/mL | 45.5 ± 3.89 ng·h/mL | 58.8 ± 12.5 ng/mL | – | 0.47 ± 0.15 h | 4.89% | 5.23% | 7.92% | 7.57% | 2.03% | −9.95% | 13.76% | 8.14% | 3.31% | 0.14% | −5.95% | −0.13% | 34.4 ± 8.89 ng·h/mL | 33.1 ± 6.8 ng·h/mL | 30.1 ± 13.8 ng/mL | decrease of AUC (0–∞) compared with the normal group [3, 4]: 24.57%; change of Cmax in AA rats versus normal rats ([3]; AA versus normal rats): decreased remarkably; Tmax [3, 5]: 0.21 ± 0.1 h; half-life [3, 5]: 0.75 ± 0.65 h |
